The values that follow come from patent publication US12428415B2, “Matriptase 2 inhibitors and uses thereof” (Disc Medicine, Inc., priority 2018, dated 2025).

The first test addresses T1, Human Recombinant Matriptase 2 (Homo sapiens, UniProt Q8IU80).
T1 construct: purchased Enzo Life Sciences (an in-house preparation was also used) ALX-201-752-1
T1 sequence (Q8IU80 1-811): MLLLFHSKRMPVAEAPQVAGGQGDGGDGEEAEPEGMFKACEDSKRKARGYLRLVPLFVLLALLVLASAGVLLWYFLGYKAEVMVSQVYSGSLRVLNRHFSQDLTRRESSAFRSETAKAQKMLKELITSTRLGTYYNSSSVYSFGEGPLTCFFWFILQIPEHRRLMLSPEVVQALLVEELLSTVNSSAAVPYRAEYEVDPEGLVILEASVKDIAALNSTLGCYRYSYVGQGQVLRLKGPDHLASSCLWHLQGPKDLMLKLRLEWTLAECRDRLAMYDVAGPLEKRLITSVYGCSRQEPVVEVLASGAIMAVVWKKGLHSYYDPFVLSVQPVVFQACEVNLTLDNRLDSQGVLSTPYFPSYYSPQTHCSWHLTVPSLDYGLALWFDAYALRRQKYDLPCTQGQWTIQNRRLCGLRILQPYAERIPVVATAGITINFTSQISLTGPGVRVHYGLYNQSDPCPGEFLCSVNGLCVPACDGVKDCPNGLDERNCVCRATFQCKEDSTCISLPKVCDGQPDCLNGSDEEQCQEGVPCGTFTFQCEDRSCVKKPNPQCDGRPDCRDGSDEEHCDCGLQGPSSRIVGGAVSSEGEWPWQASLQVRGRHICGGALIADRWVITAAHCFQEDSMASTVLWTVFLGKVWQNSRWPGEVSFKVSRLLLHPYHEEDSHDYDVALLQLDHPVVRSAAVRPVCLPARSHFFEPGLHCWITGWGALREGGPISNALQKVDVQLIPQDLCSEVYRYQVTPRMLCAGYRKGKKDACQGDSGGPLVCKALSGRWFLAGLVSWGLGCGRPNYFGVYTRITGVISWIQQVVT
The test can be described thus: Matriptase 2 fluorescence based inhibition assay, Method B (50 mM TRIS pH 7.5, 150 mM NaCl, 0.01% gelatin). The settings on record: 1 uM compound; Assay Used = B. It is filed as biochemical. In short, it runs like this: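 Fluorogenic substrate Boc-Gln-Ala-Arg-7-amido-4-methylcoumarin (100 μM) cleavage read at Ex 360/Em 480 nm 60 min after addition, following 30 min enzyme–compound preincubation at 25° C. Enzyme was 7 nM commercial or 15 nM in-house; DMSO 1%. IC50s fitted by non-linear sigmoidal regression.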
`N=C(N)c1ccc2cc(C(=O)NCC3(CN)CCCCC3)n(Cc3cccc4ccccc34)c2c1` [Compound I-474]: the “Mar-2 % inhibition at 1 uM” value is recorded as “D (D represents 75%≤I≤100%)”.

The same test, now with this note: 1 uM compound; Assay Used = B (Method B); read-out: Mar-2 % inhibition at 1 uM.
On to `N=C(N)c1ccc2cc(C(=O)O)n(Cc3cc(OC4CCCCC4)cc4ccccc34)c2c1` [Compound I-682], for which the inhibition at 1 µM fell in the range of 25 to 50%.

For the compound `N/C(=N/O)c1ccc2cc(C(=O)O)n(Cc3cc(Oc4ncccn4)cc4ccccc34)c2c1` [Compound I-643, (Z)-6-(N′-hydroxycarbamimidoyl)-1-((3-(pyrimidin-2-yloxy)naphthalen-1-yl)methyl)-1H-indole-2-carboxylic Acid], the inhibition at 1 µM is 0 to 25%.

On to `N=C(N)c1ccc2cc(C(=O)N[C@H]3CC[C@H](N)CC3)n(Cc3cc(Oc4ccsc4)cc4ccccc34)c2c1` [Compound I-631], for which the inhibition at 1 µM lay within 75 to 100%.

For the compound `CC(=O)N[C@H]1CC[C@H](NC(=O)c2cc3ccc(C(=N)N)cc3n2Cc2cccc3ccccc23)CC1` [Compound I-754], the inhibition at 1 µM lay in the range of 50 to 75%.

As to `CC(C)(C)OC(=O)NC(=N)c1ccc2cc(C(=O)N[C@H]3CCCc4ccccc43)n(Cc3cccc4ccccc34)c2c1` [Compound I-767], the inhibition at 1 µM was 0 to 25%.

With `N=C(N)c1ccc2cc(C(=O)NCC3(CN)CCCCC3)n(Cc3cccc4ccccc34)c2c1` [Compound I-604], the inhibition at 1 µM lay within 75 to 100%.

Turning to `COc1ccc2c(Cn3c(C(=O)N[C@H]4CC[C@H](N)CC4)cc4ccc(/C(N)=N\O)cc43)cccc2c1` [Compound I-795], the inhibition at 1 µM was in the range of 0 to 25%.

For the compound `N=C(N)c1ccc2cc(C(=O)N[C@H]3CC[C@H](N)CC3)n(Cc3ccc(Br)c4ccccc34)c2c1` [Compound I-794], the inhibition at 1 µM lay within 75 to 100%.

On to `N=C(N)c1ccc2cc(C(=O)NC3CCC(N)CC3)n(Cc3ccc(C(=N)N)c4ccccc34)c2c1` (stereo not drawn) [Compound I-645], for which the inhibition at 1 µM fell in the range of 25 to 50%.

For the compound `CN(C)C(=O)c1cc2ccc(C(=N)N)cc2n1Cc1cccc2ccccc12` [Compound I-624], the inhibition at 1 µM was in the range of 25 to 50%.

Turning to `COc1ccccc1Oc1cc(Cn2c(C(=O)O)cc3ccc(C(=N)N)cc32)c2ccccc2c1` [Compound I-709], the inhibition at 1 µM is 25 to 50%.

Regarding `CS(=O)(=O)Oc1cc(Cn2c(C(=O)O)cc3ccc(C(=N)N)cc32)c2ccccc2c1` [Compound I-623], the inhibition at 1 µM fell in the range of 50 to 75%.

On to `NCc1ccc2cc(C(=O)N[C@H]3CC[C@@H](N)CC3)n(Cc3cccc4ccccc34)c2c1` [Compound I-743], for which the inhibition at 1 µM fell in the range of 50 to 75%.

With `N=C(N)c1ccc2cc(C(=O)OCCO)n(Cc3cccc4ccccc34)c2c1` [Compound I-611], the inhibition at 1 µM lay within 50 to 75%.

Staying with this test, now noted: 1 uM compound; Assay Used = B; read-out: Mar-2 % inhibition at 1 uM.
Take `N=C(N)c1ccc2cc(C(=O)N[C@H]3CC[C@H](N)CC3)n(CCS(=O)(=O)c3cccc4ccccc34)c2c1` [Compound I-501]: the inhibition at 1 µM was in the range of 0 to 25%.

Regarding `CN(C)[C@H]1CC[C@H](NC(=O)c2cc3ccc(C(=N)N)cc3n2Cc2cccc3ccccc23)CC1` [Compound I-469], the inhibition at 1 µM fell in the range of 75 to 100%.

As for `N=C(N)c1ccc2cc(C(=O)NC3CCNCC3F)n(Cc3cccc4ccccc34)c2c1` (stereo not drawn) [Compound I-593], the inhibition at 1 µM fell in the range of 75 to 100%.

`N=C(N)c1ccc2cc(C(=O)NC3CC4CC3CN4)n(Cc3cccc4ccccc34)c2c1` (stereo not drawn) [Compound I-480]: the inhibition at 1 µM lay in the range of 75 to 100%.

On to `CC(C)COC(=O)NC(=N)c1ccc2cc(C(=O)O)n(Cc3cc(Oc4ncccn4)cc4ccccc34)c2c1` [Compound I-595], for which the inhibition at 1 µM lay in the range of 25 to 50%.

With `CC(C)(C)OC(=O)NC(=N)c1ccc2cc(C(=O)N[C@H]3CC[C@H](O)CC3)n(Cc3cccc4ccccc34)c2c1` [Compound I-422], the inhibition at 1 µM fell in the range of 25 to 50%.

Regarding `N=C(N)c1ccc2cc(C(=O)N[C@H]3CC[C@H](N)CC3)n(Cc3cccc(Cl)c3Cl)c2c1` [Compound I-498], the inhibition at 1 µM was 25 to 50%.

As to `CN(C)[C@H]1CC[C@@H](NC(=O)c2cc3ccc(C(=N)N)cc3n2Cc2cccc3ccccc23)CC1` [Compound I-470], the inhibition at 1 µM lay within 75 to 100%.

As for `CN1CCC(COC(=O)c2cc3ccc(C(=N)N)cc3n2Cc2cc(Oc3ncccn3)cc3ccccc23)CC1` [Compound I-562], the inhibition at 1 µM is 50 to 75%.

By inhibition is commonly meant the percentage by which the read-out fell short of the control.
